{"source": "PubChem BioAssay AID1259410", "about": "(Chemical Carcinogenesis Research Information System (CCRIS), 2018)", "origin": "cited, not measured here", "tested_on": "rodent tumor promotion studies, tumor incidence", "assay": "CCRIS tumor promotion studies"}
{"compound": "Cc1cc(C(C)(C)C)c(O)c(C(C)(C)C)c1", "values": [{"measurement": "outcome", "setting": "Carcinogen: 2-(ACETYLAMINO)FLUORINE, Doses [Carcinogen]: 200 PPM IN DIET FOR 8 WK, Doses [Promoter]: 300, 1000, 3000, 6000 PPM IN DIET FOR 22 WK AFTER INITIATION FOR 8 WK, Doses [Promoter]: 300, 1000, 3000, 6000 PPM IN DIET FOR 22 WK AFTER INITIATION FOR 8 WK, Route [Carcinogen]: ORAL, Route [Promoter]: ORAL, Species: RAT, Strain/Sex: F344/MALE", "result": "liver: neoplastic nodule, hepatocellular carcinoma"}, {"measurement": "outcome", "setting": "Carcinogen: 2-(ACETYLAMINO)FLUORINE, Doses [Carcinogen]: DIET, Doses [Promoter]: IN DIET, Route [Carcinogen]: ORAL, Route [Promoter]: ORAL, Species: RAT, Strain/Sex: MALE", "result": "liver"}, {"measurement": "outcome", "setting": "Carcinogen: 3,2'-DIMETHYL-4-AMINOBIPHENYL, 13394-86-0, Doses [Carcinogen]: 50 MG/KG IN CORN OIL 1/WK FOR 10 WK, Doses [Promoter]: 0, 1 ADMINISTERED TO 4 WK OLD RATS IN DIET FOR 11 WK BEGINNING 1 WK PRIOR TO CARCINOGEN (STUDY DURATION: 55 WK), Route [Carcinogen]: SUBCUTANEOUS, Route [Promoter]: ORAL, Species: RAT, Strain/Sex: F344/MALE", "result": "bladder: carcinoma, papilloma"}, {"measurement": "outcome", "setting": "Carcinogen: 3-METHYLCHOLANTHRENE, 56-49-5, Doses [Carcinogen]: 10, 15, 25 UG/G ONCE, Doses [Carcinogen]: 10, 15, 25 UG/G ONCE, Doses [Promoter]: 0, 200 MG/KG 1/WK FOR 6 WK (STUDY DURATION: 20 WK), Route [Carcinogen]: INTRAPERITONEAL, Route [Promoter]: INTRAPERITONEAL, Species: MOUSE, Strain/Sex: BALB/CBYJ/FEMALE", "result": "lung: tumor"}, {"measurement": "outcome", "setting": "Carcinogen: 3-METHYLCHOLANTHRENE, 56-49-5, Doses [Carcinogen]: 10 UG/G ONCE, Doses [Promoter]: 0, 200 MG/KG 1/WK FOR 6 WK (STUDY DURATION: 20 WK), Route [Carcinogen]: INTRAPERITONEAL, Route [Promoter]: INTRAPERITONEAL, Species: MOUSE, Strain/Sex: BALB/COLA/FEMALE", "result": "lung: tumor"}, {"measurement": "outcome", "setting": "Carcinogen: METHYLNITROSOUREA, 684-93-5, Doses [Carcinogen]: 20 MG/KG 2/WK FOR 4 WK, Doses [Promoter]: 0, 1% IN DIET BEGINNING POST CARCINOGEN TREATMENT AND CONTINUING FOR 32 WK (STUDY DURATION: 36 WK), Route [Carcinogen]: INTRAPERITONEAL, Route [Promoter]: ORAL, Species: RAT, Strain/Sex: F344/MALE", "result": "urinary bladder: papilloma, carcinoma; thyroid: adenoma"}, {"measurement": "outcome", "setting": "Carcinogen: N,N-DIBUTYLNITROSAMINE, 924-16-3, Doses [Carcinogen]: 0.05% IN DRINKING WATER FOR 16 WK, Doses [Promoter]: 0, 0.7% IN DIET FOR 16 WK CONCOMITANT WITH CARCINOGEN TREATMENT (STUDY DURATION: 32 WK), Route [Carcinogen]: ORAL, Route [Promoter]: ORAL, Species: RAT, Strain/Sex: F344/MALE", "result": "liver: hepatocellular carcinoma"}, {"measurement": "outcome", "setting": "Carcinogen: N-BUTYL-N-(4-HYDROXYBUTYL)NITROSAMINE, 3817-11-6, Doses [Carcinogen]: 0.05% IN DRINKING WATER FOR 4 WK, Doses [Promoter]: 0, 1% IN DIET FOR 32 WK (STUDY DURATION: 36 WK), Route [Carcinogen]: ORAL, Route [Promoter]: ORAL, Species: RAT, Strain/Sex: F344/MALE", "result": "urinary bladder: papilloma, carcinoma"}, {"measurement": "outcome", "setting": "Carcinogen: N-BUTYL-N-(4-HYDROXYBUTYL)NITROSAMINE, Doses [Carcinogen]: 0.05% IN DRINKING WATER FOR 4 WK, Doses [Promoter]: 1% IN DIET FOR 32 WK AFTER INITIATION, Route [Carcinogen]: ORAL, Route [Promoter]: ORAL, Species: RAT, Strain/Sex: F344/MALE", "result": "urinary bladder: carcinoma"}, {"measurement": "outcome", "setting": "Carcinogen: N-METHYL-N-NITROSOUREA, 684-93-5, Doses [Carcinogen]: 20 MG/KG 2/WK FOR 4 WK, Doses [Promoter]: 0, 1% IN DIET FOR 32 WK (STUDY DURATION: 36 WK), Route [Carcinogen]: INTRAPERITONEAL, Route [Promoter]: ORAL, Species: RAT, Strain/Sex: F344/MALE", "result": "thyroid gland: adenoma; urinary bladder: papilloma, carcinoma"}, {"measurement": "outcome", "setting": "Carcinogen: URETHANE, 51-79-6, Doses [Carcinogen]: 1 MG/G BW ONCE, Doses [Promoter]: 0, 200 MG/G BW 1/WK FOR 6 WK BEGINNING POST CARCINOGEN TREATMENT (STUDY DURATION: 20 WK), Route [Carcinogen]: INJECTION, Route [Promoter]: INJECTION, Species: MOUSE, Strain/Sex: BALB/MALE,FEMALE", "result": "lung: tumor"}, {"measurement": "outcome", "setting": "Carcinogen: URETHANE, 51-79-6, Doses [Carcinogen]: 1 MG/G BW ONCE, Doses [Promoter]: 0, 200 MG/G BW 1/WK FOR 6 WK BEGINNING POST CARCINOGEN TREATMENT (STUDY DURATION: 20 WK), Route [Carcinogen]: INJECTION, Route [Promoter]: INJECTION, Species: MOUSE, Strain/Sex: GRS/MALE,FEMALE", "result": "lung: tumor"}, {"measurement": "outcome", "setting": "Carcinogen: URETHANE, 51-79-6, Doses [Carcinogen]: 1 MG/KG ONCE, Doses [Promoter]: 0, 200 MG/KG 1/WK FOR 6 WK (STUDY DURATION: 20 WK), Route [Carcinogen]: INTRAPERITONEAL, Route [Promoter]: INTRAPERITONEAL, Species: MOUSE, Strain/Sex: BALB/CBYJ/FEMALE", "result": "lung: tumor"}, {"measurement": "outcome", "setting": "Carcinogen: URETHANE, Doses [Carcinogen]: 1000 MG/KG ONCE, Doses [Promoter]: 0.10, 0.25, 0.50% IN DIET FOR 8 WK BEGINNING 24 HR AFTER INITIATION, Doses [Promoter]: 0.10, 0.25, 0.50% IN DIET FOR 8 WK BEGINNING 24 HR AFTER INITIATION, Route [Carcinogen]: INTRAPERITONEAL, Route [Promoter]: ORAL, Species: MOUSE, Strain/Sex: STRAIN-A/MALE", "result": "lung: tumor (nos)"}, {"measurement": "outcome", "setting": "Carcinogen: URETHANE, Doses [Carcinogen]: IP, Route [Carcinogen]: INTRAPERITONEAL, Route [Promoter]: INTRAPERITONEAL, Species: MOUSE, Strain/Sex: MALE", "result": "lung"}]}
{"compound": "C1COCCO1", "values": [{"measurement": "outcome", "setting": "Carcinogen: 7,12-DIMETHYLBENZ(A)ANTHRACENE, Doses [Carcinogen]: TOP, Route [Carcinogen]: DERMAL, Route [Promoter]: DERMAL, Species: MOUSE, Strain/Sex: MALE,FEMALE", "result": "integumentary system (skin)"}]}
{"compound": "CCCCCCCCCCC(C)C1(CCC(=O)OC2C(C)C3(O)C(C=C(CO)CC4(O)C(=O)C(C)=CC43)C3C(C)(C)C23OC(C)=O)OCC(C)(C)N1[O]", "note": "(stereo not drawn)", "values": [{"measurement": "outcome", "setting": "Carcinogen: 7,12-DIMETHYLBENZ[A]ANTHRACENE, 57-97-6, Doses [Carcinogen]: 100 NMOL ONCE, Doses [Promoter]: 0, 20 NMOL 2/WK FOR 24 WK BEGINNING 1 WK POST CARCINOGEN DOSE (STUDY DURATION: 25 WK), Route [Carcinogen]: DERMAL, Route [Promoter]: DERMAL, Species: MOUSE, Strain/Sex: NMRI/FEMALE", "result": "skin: tumor"}]}
{"compound": "CCC(C(=O)NC(N)=O)c1ccccc1", "note": "(stereo not drawn)", "values": [{"measurement": "outcome", "setting": "Carcinogen: N-NITROSODIETHYLAMINE, 55-18-5, Doses [Carcinogen]: 75 MG IN STERILE SALINE ONCE, Doses [Promoter]: 0, 444 PPM IN DIET BEGINNING 2 WK POST CARCINOGEN DOSE AND CONTINUING FOR DURATION OF STUDY (STUDY DURATION: 78 WK), Route [Carcinogen]: INTRAPERITONEAL, Route [Promoter]: ORAL, Species: RAT, Strain/Sex: F344/MALE", "result": "liver: hepatocellular adenoma"}]}
